Source: patent publication US20130310384A1, “Sulfonamide-Containing Compounds” (THE BRIGHAM AND WOMEN'S HOSPITAL, INC., priority 2010, published 2013)

melting point | Compound
86 to 88 °C | O=C(O)c1ccc(CN([C@H](CO)c2ccccc2)S(=O)(=O)c2ccc(Cl)cc2)cc1 (hydrate or solvate) [Example 95, (S)-4-((4-Chloro-N-(2-hydroxy-1-phenylethyl)phenylsulfonamido)methyl)benzoic acid]
61 to 63 °C | CC[C@@H](c1ccccc1)N(Cc1ccc(S(C)(=O)=O)cc1)S(=O)(=O)c1ccc(Cl)cc1 [Example 2, (S)-4-Chloro-N-(4-(methylsulfonyl)benzyl)-N-(1phenylpropyl)benzenesulfonamide]
108 to 110 °C | CC[C@@H](c1ccccc1)N(Cc1ccc(C(=O)OC)cc1)S(=O)(=O)c1ccc(Cl)cc1 [Example 3, (S)-Methyl 4-((4-chloro-N-(1-phenylpropyl)phenylsulfonamido)methyl)benzoate]
104 to 106 °C | COC(=O)c1ccc(CN([C@@H](CO)c2ccccc2)S(=O)(=O)c2ccc(Cl)cc2)cc1 [Example 7, (R)-Methyl 4-((4-chloro-N-(2-hydroxy-1-phenylethyl)phenylsulfonamido)methyl)benzoate]
105 to 106 °C | COC(=O)c1ccc(CN([C@@H](C)c2ccccc2)S(=O)(=O)c2ccc(Cl)cc2)cc1 [Example 12, (S)-Methyl 4-((4-chloro-N-(1-phenylethyl)phenylsulfonamido)methyl)benzoate]
70 to 72 °C | CC[C@@H](c1ccccc1)N(Cc1ccc(C(=O)OC)cc1)S(=O)(=O)c1ccc(C(F)(F)F)cc1 [Example 18, (S)-Methyl 4-((N-(1-phenylpropyl)-4-(trifluoromethyl)phenylsulfonamido)methyl)benzoate]
107 to 109 °C | CC[C@@H](c1ccccc1)N(Cc1ccc(C(=O)OC)cc1)S(=O)(=O)c1ccc(F)cc1 [Example 21, (S)-Methyl 4-((4-fluoro-N-(1-phenylpropyl)phenylsulfonamido)methyl)benzoate]
176 to 178 °C | CC[C@@H](c1ccccc1)N(Cc1ccc(C(=O)O)cc1OC)S(=O)(=O)c1ccc(Cl)cc1 [Example 23, (S)-4-((4-Chloro-N-(1-phenylpropyl)phenylsulfonamido)methyl)-3-methoxybenzoic acid]
105 to 107 °C | CCC(c1ccccc1)N(Cc1ccc(C(=O)OC)cc1)S(=O)(=O)c1ccc(Cl)cc1 (stereo not shown) [Example 25, Methyl 4-((4-chloro-N-(1-phenylpropyl)phenylsulfonamido)methyl)benzoate]
82 to 84 °C | CCC(c1ccccn1)N(Cc1ccc(C(=O)OC)cc1)S(=O)(=O)c1ccc(F)cc1 (stereo not shown) [Example 26, Methyl 4-((4-fluoro-N-(1-(pyridin-2-yl)propyl)phenylsulfonamido)methyl)benzoate]
95 to 97 °C | CCC(c1ccc(F)cc1)N(Cc1ccc(C(=O)OC)cc1)S(=O)(=O)c1ccc(Cl)cc1 (stereo not shown) [Example 30, Methyl 4-((4-chloro-N-(1-(4-fluorophenyl)propyl)phenylsulfonamido)methyl)benzoate]
166 to 168 °C | CCC(CC)N(Cc1ccc(S(C)(=O)=O)cc1)S(=O)(=O)c1ccc(Cl)cc1 [Example 31, 4-Chloro-N-(4-(methylsulfonyl)benzyl)-N-(pentan-3-yl)benzenesulfonamide]
78 to 80 °C | CCC(CC)N(Cc1ccc(C(=O)OC)cc1)S(=O)(=O)c1ccc(F)cc1 [Example 32, Methyl 4-((4-fluoro-N-(pentan-3-yl)phenylsulfonamido)methyl)benzoate]
123 to 125 °C | CCC(CC)N(Cc1ccc(C#N)cc1)S(=O)(=O)c1ccc(Cl)cc1 [Example 33, 4-Chloro-N-(4-cyanobenzyl)-N-(pentan-3-yl)benzenesulfonamide]
117 to 119 °C | CCC(CC)N(Cc1ccc(C(=O)OC)cn1)S(=O)(=O)c1ccc(F)cc1 [Example 34, Methyl 6-((4-fluoro-N-(pentan-3-yl)phenylsulfonamido)methyl)nicotinate]
106 to 108 °C | CCC(CC)N(Cc1ccc(C(=O)OC)cc1)S(=O)(=O)c1ccc(C)cc1 [Example 35, Methyl 4-((4-methyl-N-(pentan-3-yl)phenylsulfonamido)methyl)benzoate]
102 to 104 °C | CCC(CC)N(Cc1ccc(C#N)cc1F)S(=O)(=O)c1ccc(F)cc1 [Example 36, N-(4-Cyano-2-fluorobenzyl)-4-fluoro-N-(pentan-3-yl)benzenesulfonamide]
145 to 147 °C | CCC(CC)N(Cc1ccc(C(=O)O)cn1)S(=O)(=O)c1ccc(F)cc1 [Example 37, 6-((4-Fluoro-N-(pentan-3-yl)phenylsulfonamido)methyl)nicotinic acid]
95 to 97 °C | CCC(CC)N(Cc1ccc(C(=O)OC)cc1)S(=O)(=O)c1ccc(Cl)cc1 [Example 40, Methyl 4-((4-chloro-N-(pentan-3-yl)phenylsulfonamido)methyl)benzoate]
103 to 105 °C | COC(=O)c1ccc(CN(C(CF)CF)S(=O)(=O)c2ccc(F)cc2)cc1 [Example 41]

melting point | Compound
134 to 135 °C | COC(=O)c1ccc(CN(C(CO)CO)S(=O)(=O)c2ccc(Cl)s2)cc1 [Example 42, Methyl 4-((5-chloro-N-(1,3-dihydroxypropan-2-yl)thiophene-2-sulfonamido)methyl)benzoate]
66 to 67 °C | CC(C)N(Cc1ccc(Cl)c(Cl)c1)S(=O)(=O)c1ccc(Cl)s1 [Example 43, 5-Chloro-N-(3,4-dichlorobenzyl)-N-isopropylthiophene-2-sulfonamide]
110 to 112 °C | COC(=O)c1ccc(CN(C(C)C)S(=O)(=O)c2ccc(Cl)cc2)cc1 [Example 44, Methyl 4-((4-chloro-N-isopropylphenylsulfonamido)methyl)benzoate]
118 to 120 °C | COC(=O)c1ccc(CN(C(C)C)S(=O)(=O)c2ccc(F)cc2)cc1 [Example 45, Methyl 4-((4-fluoro-N-isopropylphenylsulfonamido)methyl)benzoate]
133 to 135 °C | CC(C)N(Cc1ccc(Cl)c(Cl)c1)S(=O)(=O)c1cc2ccccc2s1 [Example 48, N-(3,4-Dichlorobenzyl)-N-isopropylbenzo[b]thiophene-2-sulfonamide]
85 to 87 °C | O=C(O)c1ccc(CN([C@@H](CO)c2ccccc2)S(=O)(=O)c2ccc(Cl)cc2)cc1 [Example 51, (R)-4-((4-Chloro-N-(2-hydroxy-1-phenylethyl)phenylsulfonamido)methyl)benzoic acid]
118 to 120 °C | CC[C@@H](c1ccccc1)N(Cc1ccc(C(=O)O)cc1F)S(=O)(=O)c1ccc(Cl)cc1 [Example 52, (S)-4-((4-Chloro-N-(1-phenylpropyl)phenylsulfonamido)methyl)-3-fluorobenzoic acid]
163 to 165 °C | O=C(O)c1ccc(CN(C(CO)CO)S(=O)(=O)c2ccc(Cl)s2)cc1 [Example 53, 4-((5-Chloro-N-(1,3-dihydroxypropan-2-yl)thiophene-2-sulfonamido)methyl)benzoic acid]
108 to 110 °C | CCC(c1ccc(C(F)(F)F)cc1)N(Cc1ccc(C(=O)O)cc1)S(=O)(=O)c1ccc(Cl)cc1 (stereo not shown) [Example 54, 4-((4-Chloro-N-(1-(4-(trifluoromethyl)phenyl)propyl)phenylsulfonamido)methyl)benzoic acid]
65 to 67 °C | CC[C@@H](c1ccccc1)N(Cc1cccc(C(=O)O)c1)S(=O)(=O)c1ccc(Cl)cc1 [Example 59, (S)-3-((4-Chloro-N-(1-phenylpropyl)phenylsulfonamido)methyl)benzoic acid]
136 to 139 °C | CC[C@@H](c1ccccc1)N(Cc1ccc(C(=O)NCC(=O)O)cc1)S(=O)(=O)c1ccc(Cl)cc1 [Example 64, (S)-2-(4-((4-Chloro-N-(1-phenylpropyl)phenylsulfonamido)methyl)benzamido)acetic acid]
108 to 110 °C | CCC(CC)N(Cc1ccc(C#N)nc1)S(=O)(=O)c1ccc(Cl)cc1 [Example 72]
118 to 120 °C | CCC(CC)N(Cc1ccc(C#N)nc1)S(=O)(=O)c1ccc(F)cc1 [Example 73, N-((6-Cyanopyridin-3-yl)methyl)-4-fluoro-N-(pentan-3-yl)benzenesulfonamide]
78 to 80 °C | CC[C@@H](c1ccccc1)N(Cc1ccc(C(=O)NC[C@H](C)O)cc1)S(=O)(=O)c1ccc(Cl)cc1 [Example 80, 4-((4-Chloro-N—((S)-1-phenylpropyl)phenylsulfonamido)methyl)-N-((S)-2-hydroxypropyl)benzamide]
120 to 121 °C | CC[C@@H](c1ccc(C#N)cc1)N(Cc1ccc(C#N)cc1)S(=O)(=O)c1ccc(Cl)cc1 [Example 84, (S)-4-Chloro-N-(4-cyanobenzyl)-N-(1-(4-cyanophenyl)propyl)benzenesulfonamide]
111 to 113 °C | CCC(c1ccc(Cl)nc1)N(Cc1ccc(C(=O)O)cc1)S(=O)(=O)c1ccc(Cl)cc1 (stereo not shown) [Example 89, 4-((4-Chloro-N-(1-(6-chloropyridin-3-yl)propyl)phenylsulfonamido)methyl)benzoic acid]
128 to 130 °C | COC(=O)c1ccc(CN([C@@H](CO)Cc2ccccc2)S(=O)(=O)c2ccc(Cl)cc2)cc1 [Example 94, (R)-Methyl 4-((4-chloro-N-(1-hydroxy-3-phenylpropan-2-yl)phenylsulfonamido)-methyl)benzoate]
132 to 133 °C | CC[C@@H](c1ccc(C#N)cc1)N(Cc1ccc(C(=O)O)cc1)S(=O)(=O)c1ccc(Cl)cc1 [Example 103, (S)-4-((4-Chloro-N-(1-(4-cyanophenyl)propyl)phenylsulfonamido)methyl)benzoic acid]
120 to 121 °C | CC[C@@H](c1ccccc1)N(Cc1ccc(C(=O)N2CCC[C@@H]2CO)cc1)S(=O)(=O)c1ccc(Cl)cc1 [Example 104, 4-Chloro-N-(4-((R)-2-(hydroxymethyl)pyrrolidine-1-carbonyl)benzyl)-N-((S)-1-phenylpropyl)benzenesulfonamide]
98 to 99 °C | CC[C@@H](c1ccccc1)N(Cc1ccc(C(=O)OC)cc1)S(=O)(=O)c1ccc(Cl)c(Cl)c1 [Example 114, (S)-Methyl 4-((3,4-dichloro-N-(1-phenylpropyl)phenylsulfonamido)methyl)benzoate]
